Results: US20210349099A1, “CANCER BIOMARKERS AND METHODS OF USE THEREOF” (X4 Pharmaceuticals, Inc., priority 2017, published 2021)

Legend:
[1] = test system: metastatic melanoma human tumor sample; assay: Single-marker IHC of melanoma patient tumor samples (HALO); assay type: in vivo
Description: Single-marker IHC (CD8 and granzyme B) and multiplex IHC staining were analyzed using HALO™ spatial analysis tools, and the entire tumor area of each specimen was scored. (See Tunstall, “Quantifying Immune Cell Distribution in the Tumor Microenvironment Using HALO™ Spatial Analysis Tools,” Application Note, July […], (Indica Labs), accessed Nov. 1, 2017, on https://thepathologist.com/fileadmin/issues/App_Notes/0016-010-halo-app-note.pdf). See also Sherry et al., “Utilizing multiplex chromogenic IHC and digital image analysis to evaluate immune cell content and spatial distribution within NSCLC tumor tissue” Cancer Research (2017) 77(13) Supp: Abstract 2937. CD8 was measured using a mouse monoclonal antibody (DAKO catalog #M7103, lot #20029542). A Leica Bond RX Autostainer was used following standard protocols. For granzyme B, a mouse monoclonal antibody was used (DAKO #M7235). A Leica Bond RX Autostainer was used following standard protocols.
Single-marker IHC was also used to measure CD3, FoxP3, and Ki67. For CD3, a rabbit polyclonal antibody was used (DAKO catalog #A0452, lot #20020069). A Leica Bond RX Autostainer was used following standard protocols. For FoxP3, a mouse monoclonal antibody was used (Abcam catalog #ab20034, lot #GR251424-1). A Leica Bond RX Autostainer was used following standard protocols. […]

melanoma biopsy samples = assay: VISTA panel staining of melanoma biopsies (CD163, CD206, VISTA, COX-2, CD3, B7H3); assay type: in vivo, human
Source text: Biopsy samples were obtained at baseline (top row) and at the end of […]-001 monotherapy (bottom row). […] The right column contains higher magnification views of the boxed regions in the center panel.

[2] = end of X4P-001 monotherapy vs baseline

Structure (SMILES): NCCCCN(Cc1nc2ccccc2[nH]1)[C@H]1CCCc2cccnc21 [X4P-001]
- CD8 expression ([1]; patient #5, post-dosing vs pre-dosing): visibly increased
- CD8+ T cells density in tumor microenvironment ([1]; patient #5, post-dosing, pre-dosing 1045): 1370 per square millimeter
- COX-2/mm^2 (melanoma biopsy samples; Week 4, ROI Non-Tumor, Day 1 2.07): 1.22 /mm^2
- CD206/mm^2 (melanoma biopsy samples; Week 4, ROI Non-Tumor, Day 1 252.20): 199.30 /mm^2
- CD3/mm^2 (melanoma biopsy samples; Week 4, ROI Non-Tumor, Day 1 400.31): 494.97 /mm^2
- VISTA/mm^2 (melanoma biopsy samples; Week 4, ROI Non-Tumor, Day 1 410.11): 144.72 /mm^2
- CD163/mm^2 (melanoma biopsy samples; Week 4, ROI Non-Tumor, Day 1 514.86): 467.25 /mm^2
- B7H3/mm^2 (melanoma biopsy samples; Week 4, ROI Non-Tumor, Day 1 615.63): 980.49 /mm^2
- Cells/mm^2 (melanoma biopsy samples; Week 4, ROI Non-Tumor, Day 1 2057.63): 2217.73 /mm^2
- COX-2/mm^2 (melanoma biopsy samples; Week 4, ROI Tumor, Day 1 3.40): 2.98 /mm^2
- CD3/mm^2 (melanoma biopsy samples; Week 4, ROI Tumor, Day 1 239.91): 1050.68 /mm^2
- CD206/mm^2 (melanoma biopsy samples; Week 4, ROI Tumor, Day 1 264.79): 161.25 /mm^2
- CD163/mm^2 (melanoma biopsy samples; Week 4, ROI Tumor, Day 1 426.51): 661.21 /mm^2
- VISTA/mm^2 (melanoma biopsy samples; Week 4, ROI Tumor, Day 1 2640.08): 852.86 /mm^2
- B7H3/mm^2 (melanoma biopsy samples; Week 4, ROI Tumor, Day 1 4826.36): 3952.27 /mm^2
- Cells/mm^2 (melanoma biopsy samples; Week 4, ROI Tumor, Day 1 5758.23): 5297.64 /mm^2
- COX-2/mm^2 (melanoma biopsy samples; Week 4, ROI Whole Tissue, Day 1 2.87): 1.97 /mm^2
- CD206/mm^2 (melanoma biopsy samples; Week 4, ROI Whole Tissue, Day 1 259.38): 182.26 /mm^2
- CD3/mm^2 (melanoma biopsy samples; Week 4, ROI Whole Tissue, Day 1 308.53): 738.82 /mm^2
- CD163/mm^2 (melanoma biopsy samples; Week 4, ROI Whole Tissue, Day 1 464.86): 552.27 /mm^2
- VISTA/mm^2 (melanoma biopsy samples; Week 4, ROI Whole Tissue, Day 1 1673.17): 457.53 /mm^2
- B7H3/mm^2 (melanoma biopsy samples; Week 4, ROI Whole Tissue, Day 1 2998.14): 2288.84 /mm^2
- Cells/mm^2 (melanoma biopsy samples; Week 4, ROI Whole Tissue, Day 1 4149.31): 3572.93 /mm^2
- expression of VISTA (melanoma biopsy samples; [2]): decreased expression
- numbers of CD3+ cells within tumor borders (melanoma biopsy samples; [2]): increased numbers
